In patent US20260159528A1, “HETEROCYCLIC COMPOUNDS AS TRIGGERING RECEPTOR EXPRESSED ON MYELOID CELLS 2 AGONISTS AND METHODS OF USE” (Vigil Neuroscience, Inc., priority 2021, published 2026):

Biological target: T1, human TREM2 (Homo sapiens, UniProt Q9NZC2)
T1 construct: expressed in transfected cells; host or cells: HEK293T
Experiment: TREM2 agonist potency by cellular Syk phosphorylation (AlphaLisa) in HEK293T-hTREM2 cells
Type: cell-based
Settings: HEK293 cells expressing human TREM2 and DAP12, pSyk AlphaLisa
Experimental: In vitro Measurement of Triggering Receptor Expressed on Myeloid Cells 2 activity using cellular phosphorylation of Spleen Tyrosine Kinase (“Syk”) Assays
Measurement of TREM2 agonist potency was done using a HEK cell line expressing human TREM2 and DAP12 (HEK293T-hTREM2 cells). Binding of small molecules to, and activation of, TREM2 increases the phosphorylation of Syk. The resultant levels of Syk phosphorylation are measured using a commercial AlphaLisa reagent kit. To perform the assay, HEK-hTREM2 cells were plated at 14,000 cells per well in a 384 well plate, in 25 µL of complete growth media and incubated at 37° C., 5% CO2 for 20-24 hours.
Prior to the assay, test compounds were diluted in the 384 well plates in assay buffer and allowed to equilibrate for 30 minutes. Growth media was removed from cell plates by inversion on blotting paper, and 25 μL of test articles in assay buffer was added to cells. Cells were incubated for 45 minutes at room temperature. After 45 minutes, assay buffer was removed and 10 μL of lysis buffer was added. Plates were shaken for 20 minutes at 350 RPM at room temperature. After complete lysis, AlphaLisa reagents were added to the lysate, and fluorescence intensity was measured using a Perkin Elmer Envision plate reader. Intensities were used to generate a standard curve, and % activation was calculated. Curve fitting was performed using Prism v9 software, log(agonist) vs response—variable slope (four parameters), and EC50s were calculated from the curve fit.
The results presented in Table D have been generated with the in vitro assay described above. This assay may be used to test any of the compounds described herein to assess and characterize a compound's ability to act as an agonist of TREM2.

T1 sequence (Q9NZC2 19-230): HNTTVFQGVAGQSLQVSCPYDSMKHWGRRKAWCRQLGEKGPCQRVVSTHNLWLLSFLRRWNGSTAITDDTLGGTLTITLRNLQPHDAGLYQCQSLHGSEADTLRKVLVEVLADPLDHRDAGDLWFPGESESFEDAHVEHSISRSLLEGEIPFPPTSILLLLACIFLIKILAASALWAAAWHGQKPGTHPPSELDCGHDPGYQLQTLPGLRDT
T1 sequence (O43914 22-113 partner): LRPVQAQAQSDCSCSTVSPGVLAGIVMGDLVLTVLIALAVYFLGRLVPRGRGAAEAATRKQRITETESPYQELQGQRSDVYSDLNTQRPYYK

EC50 (Table D-2) | EC50 (Table D) | Structure (SMILES)
50 to 500 nM |  | Cc1cc([C@H]2CN(c3nc(-c4ccc(C(F)(F)F)cc4F)c4sc(N(C)C)nc4n3)CCC2(F)F)ccn1 (single isomer, unassigned) [Compound I-202]
500 to 3000 nM |  | CN(C)c1nc2nc([C@@H]3CCO[C@@H](c4cnn(C5CC5)c4)C3)nc(C3CCCCC3)c2s1 (single isomer, unassigned) [Compound I-205]
50 to 500 nM |  | CN(C)c1nc2nc([C@H]3CCO[C@@H](c4cnn(C5CC5)c4)C3)nc(-c3ccc(F)cc3F)c2s1 (single isomer, unassigned) [Compound I-89]
≤ 50 nM |  | C[C@@H]1CN(c2nc(-c3ccc(F)cc3F)c3sc(N(C)C)nc3n2)C[C@H](c2cnn(C(F)F)c2)O1 [Compound I-235, 5-((2S,6R)-2-(1-(difluoromethyl)-1H-pyrazol-4-yl)-6-methylmorpholino)-7-(2,4-difluorophenyl)-N,N-dimethylthiazolo[4,5-d]pyrimidin-2-amine]
≤ 50 nM |  | C[C@@H]1CN(c2nc(-c3ccc(F)cc3F)c3c(n2)nc(N(C)C)n3C)C[C@H](c2cnn(C3CC3)c2)O1 [Compound I-144]
50 to 500 nM |  | Cc1cc(C2CN(c3nc(-c4ccc(C(F)(F)F)cc4F)c4sc(N(C)C)nc4n3)CCC2(F)F)ccn1 (racemic) [Compound I-188, 5-(4,4-difluoro-3-(2-methylpyridin-4-yl)piperidin-1-yl)-7-(2-fluoro-4-(trifluoromethyl)phenyl)-N,N-dimethylthiazolo[4,5-d]pyrimidin-2-amine]
50 to 500 nM |  | Cn1c(N2CCC2)nc2nc([C@H]3CCO[C@@H](c4cnn(C5CC5)c4)C3)nc(-c3ccc(F)cc3F)c21 [Compound I-293, 8-(azetidin-1-yl)-2-((2R,4S)-2-(1-cyclopropyl-1H-pyrazol-4-yl)tetrahydro-2H-pyran-4-yl)-6-(2,4-difluorophenyl)-7-methyl-7H-purine]
≤ 50 nM |  | C[C@@H]1CN(c2nc(-c3c(F)cc(F)cc3F)c3sc(N(C)C)nc3n2)C[C@H](c2cnn(C3CC3)c2)O1 [Compound I-240, 5-[(2S,6R)-2-(1-cyclopropylpyrazol-4-yl)-6-methyl-morpholin-4-yl]-N,N-dimethyl-7-(2,4,6-trifluorophenyl)thiazolo[4,5-d]pyrimidin-2-amine]
500 to 3000 nM |  | CCN(C)c1nc2nc(N3C[C@@H](C)O[C@@H](c4cnn(C5CC5)c4)C3)nc(-c3ccc(Cl)cc3F)c2s1 (single isomer, unassigned) [Compound I-119]
500 to 3000 nM |  | Cc1nc2nc([C@@H]3CCO[C@@H](c4cnn(C5CC5)c4)C3)nc(-c3ccc(F)cc3F)c2s1 [Compound I-14, 5-[(2R,4R)-2-(1-cyclopropylpyrazol-4-yl)tetrahydropyran-4-yl]-7-(2,4-difluorophenyl)-2-methyl-thiazolo[4,5-d]pyrimidine]
50 to 500 nM |  | CN(c1nc2nc([C@H]3CCO[C@@H](c4cnn(C5CC5)c4)C3)nc(-c3ccc(F)cc3F)c2n1C)C1CC1 [Compound I-298]
500 to 3000 nM |  | CN(C)c1nc2nc([C@@H]3CCO[C@@H](c4cnn(C5CC5)c4)C3)nc(-c3ccc(C(F)(F)F)cc3F)c2s1 (single isomer, unassigned) [Compound I-135]
 | 50 to 500 nM | Cc1nc2nc([C@H]3CCO[C@@H](c4cnn(C5CC5)c4)C3)nc(-c3ccc(F)cc3F)c2s1 [Compound 4, 5-((2R,4S)-2-(1-cyclopropyl-1H-pyrazol-4-yl)tetrahydro-2H-pyran-4-yl)-7-(2,4-difluorophenyl)-2-methylthiazolo[4,5-d]pyrimidine]
50 to 500 nM |  | Cc1cc(C2CCCN(c3nc(-c4ccc(C(F)(F)F)cc4F)c4sc(N(C)C)nc4n3)C2)ccn1 (racemic) [Compound I-196, 7-(2-fluoro-4-(trifluoromethyl)phenyl)-N,N-dimethyl-5-(3-(2-methylpyridin-4-yl)piperidin-1-yl)thiazolo[4,5-d]pyrimidin-2-amine]
≤ 50 nM |  | CN(C)c1nc2nc([C@H]3CCO[C@@H](c4cnn(C5CC5)c4)C3)nc(-c3ccc(Cl)cc3F)c2s1 (single isomer, unassigned) [Compound I-79]
50 to 500 nM |  | CC(=O)N(C)c1nc2nc(N3C[C@@H](C)O[C@@H](c4cnn(C5CC5)c4)C3)nc(-c3ccc(Cl)cc3F)c2s1 (single isomer, unassigned) [Compound I-99]
500 to 3000 nM |  | Fc1cc(C(F)(F)F)ccc1-c1nc([C@@H]2CCO[C@@H](c3cnn(C4CC4)c3)C2)nc2nc(C3CC3)sc12 (single isomer, unassigned) [Compound I-278]
500 to 3000 nM |  | CN(C)c1nc2nc(C3CCO[C@@H](c4cnn(C5CC5)c4)C3)nc(Oc3ccccc3)c2s1 (stereo partly drawn) [Compound I-210, 5-[(2R)-2-(1-cyclopropylpyrazol-4-yl)tetrahydropyran-4-yl]-N,N-dimethyl-7-phenoxy-thiazolo[4,5-d]pyrimidin-2-amine]
50 to 500 nM |  | Fc1cc(C(F)(F)F)ccc1-c1nc([C@@H]2CCO[C@@H](c3cnn(C4CC4)c3)C2)nc2nc(N3CCC3)sc12 (single isomer, unassigned) [Compound I-248]
≤ 50 nM |  | C[C@@H]1CN(c2nc(-c3cc(F)c(F)cc3F)c3sc(N(C)C)nc3n2)C[C@H](c2cnn(C3CC3)c2)O1 [Compound I-273, 5-[(2S,6R)-2-(1-cyclopropylpyrazol-4-yl)-6-methyl-morpholin-4-yl]-N,N-dimethyl-7-(2,4,5-trifluorophenyl)thiazolo[4,5-d]pyrimidin-2-amine]
≤ 50 nM |  | CO[C@H]1CCN(c2nc3nc(N4C[C@@H](C)O[C@@H](c5cnn(C6CC6)c5)C4)nc(-c4ccc(F)cc4F)c3s2)C1 [Compound I-224, (2S,6R)-2-(1-cyclopropylpyrazol-4-yl)-4-[7-(2,4-difluorophenyl)-2-[(3S)-3-methoxypyrrolidin-1-yl]thiazolo[4,5-d]pyrimidin-5-yl]-6-methyl-morpholine]
50 to 500 nM |  | COCn1cc([C@H]2CN(c3nc(-c4ccc(C(F)(F)F)cc4F)c4sc(N(C)C)nc4n3)C[C@@H](C)O2)cn1 [Compound I-149, 7-[2-fluoro-4-(trifluoromethyl)phenyl]-5-[(2S,6R)-2-[1-(methoxymethyl)pyrazol-4-yl]-6-methyl-morpholin-4-yl]-N,N-dimethyl-thiazolo[4,5-d]pyrimidin-2-amine]
50 to 500 nM |  | CN(C)c1nc2nc(N3CCC(F)(F)C(c4cnn(C5CC5)c4)C3)nc(-c3ccc(C(F)(F)F)cc3F)c2s1 (racemic) [Compound I-185, 5-(3-(1-cyclopropyl-1H-pyrazol-4-yl)-4,4-difluoropiperidin-1-yl)-7-(2-fluoro-4-(trifluoromethyl)phenyl)-N,N-dimethylthiazolo[4,5-d]pyrimidin-2-amine]
50 to 500 nM |  | C[C@@H]1CN(c2nc(-c3ccc(Cl)cc3F)c3sc(N(C)CCF)nc3n2)C[C@H](c2cnn(C3CC3)c2)O1 (single isomer, unassigned) [Compound I-114]
50 to 500 nM |  | Cc1cc([C@H]2CN(c3nc(-c4ccc(C(F)(F)F)cc4F)c4sc(N(C)C)nc4n3)C[C@@H](C)O2)ccn1 [Compound I-263, 7-[2-fluoro-4-(trifluoromethyl)phenyl]-N,N-dimethyl-5-[(2R,6S)-2-methyl-6-(2-methyl-4-pyridyl)morpholin-4-yl]thiazolo[4,5-d]pyrimidin-2-amine]
